Consider 16 molecules from US12139492B2 (Endotarget Inc., priority 2021, dated 2024).

One test has as its target BTK (Homo sapiens, UniProt Q06187). Nature of the test: Degradation of BTK protein in Namalwa cells (Western blot; DC50, Dmax). Particulars: for DC50: BTK degradation, cell line not given. On the technique in general: In western blotting, separated proteins are transferred to a membrane and probed.
Another test concerns Mino cells. The experiment in a line: Antiproliferative effect, MTS cell viability assay, Mino cells. Format: cell-based. Particulars: Homo sapiens, MINO, Mino mantle cell lymphoma cells; read-out: IC50 (anti-proliferation) Mino cells. In short, it runs like this:
(§1)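 Mino and JeKo-1 mantle B-cell lymphoma lines were exposed to compound at 0, 0.001, 0.01, 0.1, 1 and 10 μM for 72 h. Viability was read by MTS reduction to formazan, measured as absorbance at 490 nm.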
On the technique in general: Tetrazolium dyes change colour on reduction, which living cells bring about.

The next test concerns JeKo-1 cells. The experiment in a line: Antiproliferative effect, MTS cell viability assay, JeKo-1 cells. The class given is cell-based. Particulars: Homo sapiens; JeKo-1 mantle cell lymphoma cells; read-out: IC50 (anti-proliferation) JeKO-1 cells. The gist of the method:
as §1

Chain of BTK (Q06187 whole entry): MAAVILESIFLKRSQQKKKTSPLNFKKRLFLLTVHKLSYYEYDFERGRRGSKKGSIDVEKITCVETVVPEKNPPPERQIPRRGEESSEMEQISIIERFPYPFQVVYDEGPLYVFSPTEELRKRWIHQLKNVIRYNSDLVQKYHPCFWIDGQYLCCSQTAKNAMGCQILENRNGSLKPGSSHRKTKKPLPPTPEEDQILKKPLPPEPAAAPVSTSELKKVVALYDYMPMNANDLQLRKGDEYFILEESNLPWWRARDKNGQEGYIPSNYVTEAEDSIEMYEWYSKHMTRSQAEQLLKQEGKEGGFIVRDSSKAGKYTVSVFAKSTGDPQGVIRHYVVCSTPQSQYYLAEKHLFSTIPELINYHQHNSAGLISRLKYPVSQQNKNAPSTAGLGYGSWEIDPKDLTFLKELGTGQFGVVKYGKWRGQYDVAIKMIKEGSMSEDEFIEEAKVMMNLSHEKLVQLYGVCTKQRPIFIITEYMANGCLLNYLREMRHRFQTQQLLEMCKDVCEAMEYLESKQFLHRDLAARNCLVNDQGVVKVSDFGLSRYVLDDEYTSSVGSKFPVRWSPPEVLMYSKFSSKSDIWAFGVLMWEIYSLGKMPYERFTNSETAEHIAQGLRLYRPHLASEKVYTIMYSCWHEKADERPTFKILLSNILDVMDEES
Description for BTK: Namalwa, JeKo-1, or Mino cells were plated in 24-well plates at a density of 10^5 cells/well. Media containing various drug concentrations were added on the day following plating (day 0) and allowed to incubate for 24 hours for Western blot. Media with the tested compound was changed every other day. […] Media were removed and dishes were washed with 1×DPBS. Lysates were made by adding 150 μL of complete lysis solution and scraping cells into a 1.5 mL microcentrifuge tube. Lysates were placed on a rotisserie at 4° C. for 30 min and then spun at 4° C. at 12000 rcf for 10 min. Supernatants were assayed for protein content, snap-frozen, and stored a −80° C. if not run immediately. Then 50 μg of protein was subjected to Western blot protocol. […] They were then imaged on a LICOR infrared scanner.

In general, Dmax refers to the greatest extent of degradation seen. Read a high Dmax as a fuller loss of target. In general, DC50 refers to the midpoint of the concentration-degradation curve. Regarding `Nc1ncnc2c1c(-c1ccc(Oc3ccccc3)cc1)nn2C1CCN(C2CCN(C(=O)N3CCC(CN4CCC(c5ccc6c(c5)CN(C5CCC(=O)NC5=O)C6=O)CC4)CC3)CC2)CC1` (stereo not shown) [Compound 244, 3-(5-(1-((1-(4-(4-amino-3-(4-phenoxyphenyl)-1H-pyrazolo[3,4-d]pyrimidin-1-yl)-[1,4′-bipiperidine]-1′-carbonyl)piperidin-4-yl)methyl)piperidin-4-yl)-1-oxoisoindolin-2-yl)piperidine-2,6-dione], on BTK, the Dmax is > 90% and the DC50 was < 10 nM. Besides, in the test on Mino cells, the IC50 lay in the range of 1000 to 10000 nM. For the same molecule, the IC50 in the test with JeKo-1 cells fell in the range of 1000 to 10000 nM.

Take `Nc1ncnc2c1c(-c1ccc(Oc3ccccc3)cc1)nn2C1CCN(C2CCN(C(=O)N3CCN(CCN4CCN(c5ccc6c(c5)C(=O)N(C5CCC(=O)NC5=O)C6=O)CC4)CC3)CC2)CC1` (stereo not shown) [Compound 245]: the Dmax at BTK was > 75%. Moreover, the DC50 on BTK lay in the range of 10 to 50 nM. In addition, the IC50 in the test on Mino cells and in the test with JeKo-1 cells was 1000 to 10000 nM throughout.

`Nc1ncnc2c1c(-c1ccc(Oc3ccccc3)cc1)nn2C1CCN(C2CCN(C(=O)N3CCN(CCN4CCN(c5ccc6c(c5)CN(C5CCC(=O)NC5=O)C6=O)CC4)CC3)CC2)CC1` (stereo not shown) [Compound 246, 3-(5-(4-(2-(4-(4-(4-amino-3-(4-phenoxyphenyl)-1H-pyrazolo[3,4-d]pyrimidin-1-yl)-[1,4′-bipiperidine]-1′-carbonyl)piperazin-1-yl)ethyl)piperazin-1-yl)-1-oxoisoindolin-2-yl)piperidine-2,6-dione]: on BTK, the maximal degradation (Dmax) is > 75% and the DC50 is 10 to 50 nM. The IC50 with Mino cells is 1000 to 10000 nM. Further, in the test on JeKo-1 cells, the IC50 was 1000 to 10000 nM.

As to `Nc1ncnc2c1c(-c1ccc(Oc3ccccc3)cc1)nn2C1CCN(C2CCN(C(=O)N3CCN(CCC4CCN(c5ccc6c(c5)C(=O)N(C5CCC(=O)NC5=O)C6=O)CC4)CC3)CC2)CC1` (stereo not shown) [Compound 247, 5-(4-(2-(4-(4-(4-amino-3-(4-phenoxyphenyl)-1H-pyrazolo[3,4-d]pyrimidin-1-yl)-[1,4′-bipiperidine]-1′-carbonyl)piperazin-1-yl)ethyl)piperidin-1-yl)-2-(2,6-dioxopiperidin-3-yl)isoindoline-1,3-dione], at BTK, the Dmax was > 75% and the DC50 was in the range of 10 to 50 nM. Moreover, the IC50 in the test on Mino cells was 1000 to 10000 nM. Further, in the test on JeKo-1 cells, the IC50 fell in the range of 1000 to 10000 nM.

For `Nc1ncnc2c1c(-c1ccc(Oc3ccccc3)cc1)nn2C1CCN(C2CCN(C(=O)N3CCN(CCC4CCN(c5ccc6c(c5)CN(C5CCC(=O)NC5=O)C6=O)CC4)CC3)CC2)CC1` (stereo not shown) [Compound 248], the Dmax on BTK is > 75%. This molecule showed a DC50 on BTK of 10 to 50 nM. For the same molecule, the IC50 is < 1000 nM with Mino cells and 1000 to 10000 nM in the test with JeKo-1 cells.

Take `Nc1ncnc2c1c(-c1ccc(Oc3ccccc3)cc1)nn2C1CCN(C2CCN(C(=O)N3CCN(CCN4CCC(c5ccc6c(c5)C(=O)N(C5CCC(=O)NC5=O)C6=O)CC4)CC3)CC2)CC1` (stereo not shown) [Compound 249, 5-(1-(2-(4-(4-(4-amino-3-(4-phenoxyphenyl)-1H-pyrazol[3,4-d]pyrimidin-1-yl)-[1,4′-bipiperidine]-1′-carbonyl)piperazin-1-yl)ethyl)piperidin-4-yl)-2-(2,6-dioxopiperidin-3-yl)isoindoline-1,3-dione]: at BTK, the Dmax is > 75% and the DC50 is 10 to 50 nM. The IC50 with Mino cells was < 1000 nM. For the same molecule, in the test with JeKo-1 cells, the IC50 was 1000 to 10000 nM.

`Nc1ncnc2c1c(-c1ccc(Oc3ccccc3)cc1)nn2C1CCN(C2CCN(C(=O)N3CCN(CCN4CCC(c5ccc6c(c5)CN(C5CCC(=O)NC5=O)C6=O)CC4)CC3)CC2)CC1` (stereo not shown) [Compound 250]: at BTK, the Dmax was > 90% and the DC50 is 10 to 50 nM. Further, the IC50 in the test on Mino cells fell in the range of 1000 to 10000 nM. Moreover, in the test with JeKo-1 cells, the IC50 fell in the range of 1000 to 10000 nM.

As to `Nc1ncnc2c1c(-c1ccc(Oc3ccccc3)cc1)nn2C1CCN(C2CCN(C(=O)N3CCC(CCN4CCN(c5ccc6c(c5)C(=O)N(C5CCC(=O)NC5=O)C6=O)CC4)CC3)CC2)CC1` (stereo not shown) [Compound 251, 5-(4-(2-(1-(4-(4-amino-3-(4-phenoxyphenyl)-1H-pyrazolo[3,4-d]pyrimidin-1-yl)-[1,4′-bipiperidine]-1′-carbonyl)piperidin-4-yl)ethyl)piperazin-1-yl)-2-(2,6-dioxopiperidin-3-yl)isoindoline-1,3-dione], the Dmax on BTK is > 90%. Besides, the DC50 at BTK lay in the range of 10 to 50 nM. Also, the IC50 was < 1000 nM with Mino cells and 1000 to 10000 nM with JeKo-1 cells.

`Nc1ncnc2c1c(-c1ccc(Oc3ccccc3)cc1)nn2C1CCN(C2CCN(C(=O)N3CCC(CCN4CCN(c5ccc6c(c5)CN(C5CCC(=O)NC5=O)C6=O)CC4)CC3)CC2)CC1` (stereo not shown) [Compound 252, 3-(5-(4-(2-(1-(4-(4-amino-3-(4-phenoxyphenyl)-1H-pyrazolo[3,4-d]pyrimidin-1-yl)-[1,4′-bipiperidine]-1′-carbonyl)piperidin-4-yl)ethyl)piperazin-1-yl)-1-oxoisoindolin-2-yl)piperidine-2,6-dione]: at BTK, the Dmax is > 90% and the DC50 lay in the range of 10 to 50 nM. Moreover, in the test on Mino cells, the IC50 is < 1000 nM. In the test on JeKo-1 cells, the IC50 was < 1000 nM.

Regarding `Nc1ncnc2c1c(-c1ccc(Oc3ccccc3)cc1)nn2C1CCN(C2CCN(C(=O)N3CCC(CCN4CCC(c5ccc6c(c5)C(=O)N(C5CCC(=O)NC5=O)C6=O)CC4)CC3)CC2)CC1` (stereo not shown) [Compound 253, 5-(1-(2-(1-(4-(4-amino-3-(4-phenoxyphenyl)-1H-pyrazolo[3,4-d]pyrimidin-1-yl)-[1,4′-bipiperidine]-1′-carbonyl)piperidin-4-yl)ethyl)piperidin-4-yl)-2-(2,6-dioxopiperidin-3-yl)isoindoline-1,3-dione], at BTK, the Dmax is > 90% and the DC50 is 10 to 50 nM. In addition, the IC50 in the test with Mino cells lay in the range of 1000 to 10000 nM. Further, in the test with JeKo-1 cells, the IC50 lay within 1000 to 10000 nM.

Turning to `Nc1ncnc2c1c(-c1ccc(Oc3ccccc3)cc1)nn2C1CCN(C2CCN(C(=O)N3CCC(CCN4CCC(c5ccc6c(c5)CN(C5CCC(=O)NC5=O)C6=O)CC4)CC3)CC2)CC1` (stereo not shown) [Compound 254, 3-(5-(1-(2-(1-(4-(4-amino-3-(4-phenoxyphenyl)-1H-pyrazolo[3,4-d]pyrimidin-1-yl)-[1,4′-bipiperidine]-1′-carbonyl)piperidin-4-yl)ethyl)piperidin-4-yl)-1-oxoisoindolin-2-yl)piperidine-2,6-dione], at BTK, the greatest degradation seen (Dmax) is > 90% and the DC50 was < 10 nM. For the same molecule, the IC50 in the test with Mino cells was in the range of 1000 to 10000 nM. Also, the IC50 in the test with JeKo-1 cells lay within 1000 to 10000 nM.

In the case of `Nc1ncnc2c1c(-c1ccc(Oc3ccccc3)cc1)nn2C1CCN(C2CCN(C(=O)N3CCC(CCC4CCN(c5ccc6c(c5)C(=O)N(C5CCC(=O)NC5=O)C6=O)CC4)CC3)CC2)CC1` (stereo not shown) [Compound 255, 5-(4-(2-(1-(4-(4-amino-3-(4-phenoxyphenyl)-1H-pyrazolo[3,4-d]pyrimidin-1-yl)-[1,4′-bipiperidine]-1′-carbonyl)piperidin-4-yl)ethyl)piperidin-1-yl)-2-(2,6-dioxopiperidin-3-yl)isoindoline-1,3-dione], at BTK, the Dmax is > 90% and the DC50 lay in the range of 10 to 50 nM. For the same molecule, the IC50 in the test with Mino cells was < 1000 nM. Also, the IC50 in the test with JeKo-1 cells was in the range of 1000 to 10000 nM.

As for `Nc1ncnc2c1c(-c1ccc(Oc3ccccc3)cc1)nn2C1CCN(C2CCN(C(=O)N3CCC(CCC4CCN(c5ccc6c(c5)CN(C5CCC(=O)NC5=O)C6=O)CC4)CC3)CC2)CC1` (stereo not shown) [Compound 256, 3-(5-(4-(2-(1-(4-(4-amino-3-(4-phenoxyphenyl)-1H-pyrazolo[3,4-d]pyrimidin-1-yl)-[1,4′-bipiperidine]-1′-carbonyl)piperidin-4-yl)ethyl)piperidin-1-yl)-1-oxoisoindolin-2-yl)piperidine-2,6-dione], on BTK, the Dmax is > 90% and the DC50 was < 10 nM. In addition, the IC50 with Mino cells was < 1000 nM. Besides, in the test with JeKo-1 cells, the IC50 is 1000 to 10000 nM.

As to `Nc1ncnc2c1c(-c1ccc(Oc3ccccc3)cc1)nn2C1CCN(C2CCN(C(=O)N3CCN(CCCN4CCN(c5ccc6c(c5)C(=O)N(C5CCC(=O)NC5=O)C6=O)CC4)CC3)CC2)CC1` (stereo not shown) [Compound 257, 5-(4-(3-(4-(4-(4-amino-3-(4-phenoxyphenyl)-1H-pyrazolo[3,4-d]pyrimidin-1-yl)-[1,4′-bipiperidine]-1′-carbonyl)piperazin-1-yl)propyl)piperazin-1-yl)-2-(2,6-dioxopiperidin-3-yl)isoindoline-1,3-dione], on BTK, the Dmax was > 75% and the DC50 was > 50 nM. For the same molecule, the IC50 in the test on Mino cells is > 10000 nM. For the same molecule, the IC50 with JeKo-1 cells was > 10000 nM.

For the molecule `Nc1ncnc2c1c(-c1ccc(Oc3ccccc3)cc1)nn2C1CCN(C2CCN(C(=O)N3CCN(CCCN4CCN(c5ccc6c(c5)CN(C5CCC(=O)NC5=O)C6=O)CC4)CC3)CC2)CC1` (stereo not shown) [Compound 258, 3-(5-(4-(3-(4-(4-(4-amino-3-(4-phenoxyphenyl)-1H-pyrazolo[3,4-d]pyrimidin-1-yl)-[1,4′-bipiperidine]-1′-carbonyl)piperazin-1-yl)propyl)piperazin-1-yl)-1-oxoisoindolin-2-yl)piperidine-2,6-dione], on BTK, the Dmax was > 75% and the DC50 lay within 10 to 50 nM. Further, the IC50 in the test with Mino cells was in the range of 1000 to 10000 nM. In addition, the IC50 in the test on JeKo-1 cells was > 10000 nM.

With `Nc1ncnc2c1c(-c1ccc(Oc3ccccc3)cc1)nn2C1CCN(C2CCN(C(=O)N3CCN(CCCC4CCN(c5ccc6c(c5)C(=O)N(C5CCC(=O)NC5=O)C6=O)CC4)CC3)CC2)CC1` (stereo not shown) [Compound 259, 5-(4-(3-(4-(4-(4-amino-3-(4-phenoxyphenyl)-1H-pyrazolo[3,4-d]pyrimidin-1-yl)-[1,4′-bipiperidine]-1′-carbonyl)piperazin-1-yl)propyl)piperidin-1-yl)-2-(2,6-dioxopiperidin-3-yl)isoindoline-1,3-dione], at BTK, the Dmax was > 75% and the DC50 is > 50 nM. The IC50 in the test with Mino cells was > 10000 nM. In addition, in the test on JeKo-1 cells, the IC50 fell in the range of 1000 to 10000 nM.
